Test results reported in patent publication US8426684B2 (Washington State University Research Foundation, priority 2004, dated 2013).
Values joined by “and” are separate entries in the source; they are usually repeats but may differ in a detail not shown here. Equal values may be shown once.

What was measured:
[1] = target: T1, menthone: (3R)-(−)-menthol reductase (SEQ ID NO:2) (Mentha x piperita, UniProt Q5CAF4); test: Substrate specificity of the reductase; assay type: biochemical; settings: 100 μM monoterpenone substrate, 500 μM NADPH, 0.5 μg reductase, pH optimum, overnight incubation
[2] = target: T1, menthone: (3R)-(−)-menthol reductase (SEQ ID NO:2); settings: at saturation under linear reaction conditions
Protocol: Assay mixtures containing 2 ml of 40 mM KH2PO4 at pH 7, with 10 mM β-mercaptoethanol were combined with 500 μM cofactor and concentrations of monoterpene substrate ranging from 2.5 μM to 1 mM, or with 100 μM monoterpene substrate, and concentrations of cofactor ranging from 0.1 μM to 1 mM, and preheated to 31° C. before initiation of the reaction by enzyme addition (0.008 to 1.3 μg protein). The reactions were quenched after 6 to 9 min by addition of 0.5 ml pentane containing camphor as internal standard (6.6 μM) followed by vigorous mixing and cooling on ice; quantitation of products in the pentane extract was achieved by capillary-GC using the conditions described above with peak area quantification using the internal standard for normalization. […] Kinetic constants, representing the average of at least two independent experiments, were determined by nonlinear regression analysis of Michaelis-Menten plots using Enzyme Kinetics, v 1.11 (Trinity Software, Plymouth, N.H.). The values reported are the means±standard error.

[3] = target: T1, menthone: (3R)-(−)-menthol reductase (SEQ ID NO:2); test: In vitro demonstration of menthone reductase activity (product analysis by GC, GC-MS); assay type: biochemical; settings: partially purified recombinant protein
Protocol: Bacteria harboring the pSBET-reductase plasmid or the pET-reductase plasmid were grown in 5 ml cultures of Luria-Bertani (LB) media to an OD600 of 0.8-1.0, at which time the cultures were cooled to 10° C., isopropyl-β-D-thiogalactopyranoside was added to 0.25 mM, and growth was continued for 12-18 h at 10° C. with shaking at 220 rpm. Cells were pelleted by centrifugation for 25 min at 2500 g and 4° C., and then resuspended in 1 ml resuspension buffer (50 mM Mopso, pH 7, with 10% (v/v) glycerol, 10% (w/v) sorbitol, and 10 mM […]) containing 0.4 mg/ml lysozyme. Following incubation on ice for 30 min, the extract was sonicated for 10 sec with a Virtis sonicator using a microtip probe at medium power. Cell debris was pelleted by centrifugation at 27,000 g at 4° C. for 30 min, and the supernatant, containing the operationally soluble reductase, was used for initial characterization.
Following incubation with gentle shaking at 31° C. for 12 h, 0.5 ml of pentane was added and the mixture was vigorously mixed to extract the monoterpene products which were analyzed by GC and GC-MS as described above. […] Following 15 h of shaking (250 rpm) at 15-20° C., these cultures were transferred to 0.5 L round-bottom flasks, to which 6.6 μmol of (+)-camphor was added as an internal standard, and the mixture was steam distilled and the distillate analyzed as described above.

[4] = substrate: CC(C)[C@@H]1CC[C@@H](C)CC1=O; test: purified protein, by the assay type; settings: other: monoterpene substrate, NADPH as cofactor, reductase expressed from pSBET, pH 7, 31° C., means±standard error
[5] = substrate: CC(C)[C@H]1CC[C@@H](C)CC1=O; test: purified protein, by the assay type; settings: other: monoterpene substrate, NADPH as cofactor, reductase expressed from pSBET, pH 7, 31° C., means±standard error
[6] = target: T1, menthone: (3R)-(−)-menthol reductase (SEQ ID NO:2); test: pH optimum of the reductase; assay type: biochemical; settings: 25 μM menthone, 500 μM NADPH, 0.5 μg protein, 6 min at 31° C.
[7] = from (+)-isomenthone in the presence of NADPH
[8] = from (−)-menthone in the presence of NADPH

## C=C(C)[C@H]1CC[C@@H](C)CC1=O (relative stereo) [(+)-cis-isopulegone]
[1]
  reduction of alternate substrate to the corresponding monoterpenols: only able to detectably reduce (+)-menthone

## C=C(C)C1CC=C(C)C(=O)C1 (single isomer, unassigned; (-)) [(−)-carvone]
[1]
  reduction of alternate substrate to the corresponding monoterpenols: only able to detectably reduce (+)-menthone

## C=C(C)C1CCC(C)=CC1=O (single isomer, unassigned; (-)) [(−)-isopiperitenone]
[1]
  reduction of alternate substrate to the corresponding monoterpenols: only able to detectably reduce (+)-menthone

## CC(C)=C1CC[C@@H](C)CC1=O [(+)-pulegone]
[1]
  reduction of alternate substrate to the corresponding monoterpenols: only able to detectably reduce (+)-menthone

## NC(=O)C1=CN([C@@H]2O[C@H](COP(=O)(O)OP(=O)(O)OC[C@H]3O[C@@H](n4cnc5c(N)ncnc54)[C@H](O)[C@@H]3O)[C@@H](O)[C@H]2O)C=CC1 [NADH]
[2]
  turnover with NADH as cofactor compared with NADPH: less than 20%

## CC(C)[C@H]1CC[C@@H](C)CC1=O [isomenthone, (+)-isomenthone]
[3]; [7]
  product share (3R)-(+)-neoisomenthol: 87%
  product share (3S)-(+)-isomenthol: 13%

## CC(C)[C@@H]1CC[C@@H](C)CC1=O [menthone, (−)-menthone]
[3]; [8]
  product share (3R)-(−)-menthol: 95%
  product share (3S)-(+)-neomenthol: 5%

## (+)-menthone
[1]
  reduction of alternate substrate to the corresponding monoterpenols: detectably reduce

B1: menthone: (3R)-(−)-menthol reductase (SEQ ID NO:2) (Mentha x piperita) (protein)
chain: MADTFTQRYALVTGANKGIGFEICRQLASKGMKVILASRNEKRGIEARERLLKESRSISDDDVVFHQLDVADPASAVAVAHFIETKFGRLDILVNNAGFTGVAIEGDISVYQECLEANIIAAQGGQAHPFHPKTTGRLIETLEGSKECIETNYYGTKRITETLIPLLQKSDSPTIVNVSSTFSTLLLQPNEWAKGVFSSNSLNEGKVEEVLHEFLKDFIDGKLQQNHWPPNFAAYKVSKAAVNAYTRIIARKYPSFCINSVCPGFVRTDICYNLGVLSEAEGAEAPVKLALLPDGGPSGSFFSREEALSLY
[4]
  Km: 3.0 ± 0.6 µM
  kcat: 0.6 s⁻¹
[5]
  Km: 41 ± 5 µM

B2: reductase (SEQ ID NO:2): recombinant peppermint menthone: (3R)-(−)-menthol reductase, 311 residue protein encoded by cDNA SEQ ID NO:1, expressed in E. coli (protein)
chain: MADTFTQRYALVTGANKGIGFEICRQLASKGMKVILASRNEKRGIEARERLLKESRSISDDDVVFHQLDVADPASAVAVAHFIETKFGRLDILVNNAGFTGVAIEGDISVYQECLEANIIAAQGGQAHPFHPKTTGRLIETLEGSKECIETNYYGTKRITETLIPLLQKSDSPTIVNVSSTFSTLLLQPNEWAKGVFSSNSLNEGKVEEVLHEFLKDFIDGKLQQNHWPPNFAAYKVSKAAVNAYTRIIARKYPSFCINSVCPGFVRTDICYNLGVLSEAEGAEAPVKLALLPDGGPSGSFFSREEALSLY
modifications: Mentha Piperita
[6]
  pH of half maximal activities: 4.5 and 8.5
  pH optimum: 7.0
